US20090203010A1, “MSMB-gene based diagnosis, staging and prognosis of prostate cancer” (Katholieke Universiteit Leuven, K.U. Leuven R&D, priority 2008, published 2009)

Assays:
Type in all cases: cell-based, Human
MSMB gene = experiment: Quantitative RT-PCR of the MSMB transcript level in PC-3 cells
Method: (a) The relative amounts of EZH2 (left panel) and MSMB transcripts (right panel) in the indicated prostate cell lines were determined by quantitative RT-PCR with intron-spanning primers. Human prostate PC-3 cells (adenocarcinoma), LNCaP cells (carcinoma) and DU 145 cells (carcinoma) were cultured as monolayers in 50% Dulbecco's modified Eagle's medium (DMEM) and 50% Ham's F12, RPMI1640 and DMEM, respectively, supplemented with 10% fetal calf serum. PZ-HPV-7 cells, an immortalized cell line derived from normal human prostate cells, were cultured in keratinocyte-serum free medium supplemented with 5 ng/ml human recombinant epidermal growth factor and 0.05 mg/ml bovine pituitary extract. Total RNA was isolated using the Genelute Mammalian Total RNA Miniprep kit (Sigma, St. Louis, Mo., USA). A total of […] RNA was reverse-transcribed with oligo dT primer (Sigma) and the M-MulV reverse transcriptase (Fermentas GMBH, St. Leon-Rot, Germany). cDNA (1.5%) was analyzed by real-time PCR in triplicate using a Platinum SYBR Green qPCR SuperMix-UDG (Invitrogen, Paisly, UK) in a Rotorgene detection system (Corbett Research, Cambridge, UK) and normalized to the housekeeping gene hypoxanthine-guanine-phosphoribosyl-transferase (HPRT). […] The DNA was recovered with the Genelute PCR clean-up kit (Sigma) and analyzed by real-time PCR. […] The enrichment of DNA was calculated using the formula:fold enrichment=^2(CtlgG-CtAb), where Ct is the threshold cycle, IgG is the normal rabbit IgG and Ab is the specific antibody.
FIG. 2 concerns how EZH2 is recruited to the MSMB gene and causes trimethylation of H3K27. […] (b) Immunoblotting (upper panel) and quantitative RT-PCR analysis (lower panel) of PC-3 cell lysates, obtained after transfection with either a control siRNA (Ctr), that is, a scrambled version of a siRNA duplex for the housekeeping gene PPP1R8 ([…] (SEQ ID NO:71), Invitrogen) or an EZH2 siRNA (KD; […] (SEQ ID NO:72), Dharmacon, Chicago, Ill., USA). […] SIPP1 served as a loading control for the immunoblotting and ACTIN was used as control for normalization in the quantitative RT-PCR. […]

[1] = test system: CpG island in the promoter region of the MSMB gene; experiment: DNA bisulfite sequencing of the MSMB CpG island in PC-3 cells; details: following addition of the DNA methyltransferase inhibitor
Method: (a) PC-3 cells were treated for 48 hours with […] of the DNA methyltransferase inhibitor […]. Subsequently, the steady-state levels of the MSMB and EZH2 transcripts were determined by quantitative RT-PCR analysis with intron-spanning primers specific for the indicated genes. The data were expressed relative to the transcript level in the control condition. HPRT was used as a control for normalization. (b) A schematic representation of the MSMB gene on scale. The four exons are indicated by the black boxes and the two analyzed CpG regions by black stars. TSS, transcriptional start site. Methylated CG dinucleotides are denoted underneath by closed circles and unmethylated CGs by open circles. Genomic DNA of PC-3 cells or LNCaP cells was purified with the GenElute Mammalian Genomic DNA Miniprep kit of Sigma. Two microgram was digested overnight with BglII. The DNA was denatured with 0.3 M NaOH at […] for 30 minutes. Sodium bisulfite (3.3 M) and hydroquinone (0.5 mM) were added to the DNA and the mixture was incubated overnight at 55° C.
The DNA was purified with the PCR purification kit of Sigma, St Louis, Mo., USA. The DNA was desulfonated with […] for 15 minutes at 37° C. and precipitated by adding NH4Ac and ethanol. The pellet was air-dried and dissolved in 10 mM Tris and 1 mM ethylene-diaminete-traacetic acid at pH 8. […]

EZH2 = experiment: Quantitative RT-PCR of the EZH2 transcript level in PC-3 cells
Method: (§1) (a) The relative amounts of EZH2 (left panel) and MSMB transcripts (right panel) in the indicated prostate cell lines were determined by quantitative RT-PCR with intron-spanning primers. Human prostate PC-3 cells (adenocarcinoma), LNCaP cells (carcinoma) and DU 145 cells (carcinoma) were cultured as monolayers in 50% Dulbecco's modified Eagle's medium (DMEM) and 50% Ham's F12, RPMI1640 and DMEM, respectively, supplemented with 10% fetal calf serum. PZ-HPV-7 cells, an immortalized cell line derived from normal human prostate cells, were cultured in keratinocyte-serum free medium supplemented with 5 ng/ml human recombinant epidermal growth factor and 0.05 mg/ml bovine pituitary extract. […] A total of 1-5 mg RNA was reverse-transcribed with oligo dT primer (Sigma) and the M-MulV reverse transcriptase (Fermentas GMBH, St. Leon-Rot, Germany). cDNA (1.5%) was analyzed by real-time PCR in triplicate using a Platinum SYBR Green qPCR SuperMix-UDG (Invitrogen, Paisly, UK) in a Rotorgene detection system (Corbett Research, Cambridge, UK) and normalized to the housekeeping gene hypoxanthine-guanine-phosphoribosyl-transferase (HPRT). […] The DNA was recovered with the Genelute PCR clean-up kit (Sigma) and analyzed by real-time PCR. […]
(§2) FIG. 2 concerns how EZH2 is recruited to the MSMB gene and causes trimethylation of H3K27. […] The enrichment on MSMB is expressed as a %±s.e. of the control value (n=3-4). […]

PPP1R8 = experiment: Quantitative RT-PCR of the housekeeping gene PPP1R8 transcript in PC-3 cells; details: siRNA transfection 48 hours
Method: FIG. 2 concerns how EZH2 is recruited to the MSMB gene and causes trimethylation of H3K27. (a) ChIP assays were performed in PC-3 cells using rabbit antibodies against a synthetic peptide of human EZH2 (E. Viré et al. (2006), Nature 439:871-874), trimethylated H3K27 (Upstate), trimethylated H3K9 (Upstate) and control IgGs. […] (b) Immunoblotting (upper panel) and quantitative RT-PCR analysis (lower panel) of PC-3 cell lysates, obtained after transfection with either a control siRNA (Ctr), that is, a scrambled version of a siRNA duplex for the housekeeping gene PPP1R8 ([…] (SEQ ID NO:71), Invitrogen) or an EZH2 siRNA (KD; […] (SEQ ID NO:72), Dharmacon, Chicago, Ill., USA). The PC-3 cells were plated at 1.2×10^6 cells in a 10 cm plate. At 24 hours after plating, the cells were transfected with 300 nM of siRNA duplex using Lipofectamine 2000 (Invitrogen). At 48 hours after transfection, the cells were harvested. SIPP1 served as a loading control for the immunoblotting and ACTIN was used as control for normalization in the quantitative RT-PCR. […] The immunoprecipitated DNA was analyzed by quantitative PCR using primers specific for the MSMB gene (FIG. 1, Panel b). The enrichment on MSMB is expressed as a %±s.e. of the control value (n=3-4). […]

[2] = test system: EZH2 association with the MSMB gene; experiment: ChIP with anti-EZH2 antibodies on the MSMB gene in PC-3 cells; details: 48 hours, loss only evident in intron 1 (primer sets 3 and 4)
Method: as §1, §2

[3] = test system: H3K27 trimethylation of the MSMB gene; experiment: ChIP with anti-H3K27me3 antibodies on the MSMB gene in PC-3 cells; details: 48 hours after siRNA transfection
Method: as §1, §2

Compound: Nc1ncn([C@@H]2O[C@H](CO)[C@@H](O)[C@H]2O)c(=O)n1 [50-azacytidine]
- reactivation of the MSMB gene (MSMB gene): reactivated
- methylation of the CpG island in the promoter region (upstream CpG island) of the MSMB gene [1]: decreased
- methylation of the CpG island in the promoter region (upstream CpG island) of the MSMB gene ([1]; listed as 5′ azacytidine): decreased methylation

Compound: CC(/C=C/C(=O)NO)=C\[C@@H](C)C(=O)c1ccc(N(C)C)cc1 [TSA, trichostatin A]
- increase of the MSMB transcript level (MSMB gene; TSA 50 ng/ml for nine hours, relative to control condition): six
- expression level of EZH2 (EZH2; TSA 50 ng/ml for nine hours): did not affect

Compound: AAGACUCUGAAUGCAGUUGCU (SEQ ID NO:72) [EZH2 siRNA]
- increase in the expression of MSMB (MSMB gene; siRNA transfection 48 hours, relative to control siRNA): three
- knockdown of the EZH2 transcript (EZH2; siRNA transfection 48 hours): about 70%
- transcript level of control housekeeping gene PPP1R8 (PPP1R8): not affected
- EZH2 associated with the MSMB gene (ChIP) [2]: less EZH2 was associated
- H3K27 trimethylation of the MSMB gene in intron 1 (ChIP) [3]: loss of H3K27 trimethylation
